Results taken from patent US7998682B2, “Method for assessing atherosclerosis by measuring expression of FOS or DUSP1 in monocytes” (The United States of America as represented by the …, priority 2004, dated 2011).

Legend:
FOS = assay: RT-PCR of FOS in human monocytic cell lines stimulated with PMA; format: cell-based; settings: five human monocytic cell lines, 20 nM PMA
Excerpt: FIGS. 2A-2D are digital images and graphs showing expression of FOS in human carotid plaque macrophages and in activated human monocytic cells and ApoE KO mouse splenocytes. FIG. 2A is a digital image of fresh frozen sections of human carotid artery plaques stained with hematoxylin and eosin (H&E), negative control immunoglobulin (Control Ig) and antibodies against CD14 or FOS. CD14+ staining of macrophages colocalizes with FOS immunoreactivity (25× magnification). Note that the CD14 staining gives a more diffuse appearance consistent with cell surface plasma membrance staining while the FOS pattern is more punctate consistent with nuclear localization. For the digital image shown as FIG. 2B, from four patients, the corresponding mononuclear cell (MNC), circulating monocyte (Mono) and carotid plaque purified macrophage (Mac) preparations were used for quantitative RT-PCR. The normalized expression levels shown were obtained as described in FIG. 1A. Note the progressively higher pattern of candidate gene expression associated with increasing concentration of monocytes and activation into macrophages. […] Values expressed as mean±SE, P=0.04. […]
Quantitative real-time RT-PCR: mRNA from lystates (10^5 cells) were purified by binding to poly(dT) magnetic beads (Dynal Biotech Inc. Brown Deer, Wis.) and reverse transcribed using Superscript II (Invitrogen, Carlsbad, Calif.). […]

DUSP1 = assay: RT-PCR of DUSP1 in human monocytic cell lines stimulated with PMA; format: cell-based; settings: five human monocytic cell lines, 20 nM PMA
FOS protein = FOS protein level by Western blot in PMA-stimulated THP1 cells; format: cell-based, human; settings: 1 mM mevalonate added with simvastatin, 20 hours before PMA
THP1 cells = assay: Monocyte adhesion of PMA-stimulated THP1 cells to plastic substratum; format: cell-based, human
Protocol: (§1) FIGS. 3A-3B are digital images and graphs showing the functional effects of statin and FOS siRNA inhibition on monocyte activation by PMA. FIG. 3A is a bar graph and a digital image wherein THP1 cells were pretreated with simvastatin and/or mevalonate for 20 hours prior to stimulation with 2 nM PMA. Cell adhesion was determined 4 hours after PMA stimulation; cumulative MCP-1 release into medium was assayed 24 hours after PMA stimulation. […] P values for the difference in cell adhesion and MCP-1 release after statin treatment were 0.004 and 0.04, respectively. FIG. 3B is a bar graph and a digital image wherein THP1 cells were stimulated with 2 nM PMA 30 minutes after siRNA transfection for 4 hours. Control (−) cells were mock transfected without siRNA as a transfection control. […]
(§2) Monocyte function: For pretreatment experiments, cells were incubated with 10 μM simvastatin and/or 1 mM mevalonate for 20 hours prior to stimulation with phorbol 12-myristate 13-acetate (PMA, Sigma, St. Louis, Mo.). Cell adhesion was determined by gently washing off the nonadherent cells twice and pooling them. […] Viable nonadherent and adherent cells were counted using Trypan Blue dye. Cumulative MCP-1 release into the medium was determined using the MCP-1 immunoassay kit (R& D Systems, Minneapolis, Minn.) after 24 hours PMA stimulation.

MCP-1 = assay: Cumulative MCP-1 release into medium by PMA-stimulated THP1 cells (immunoassay); format: cell-based, human
Protocol: as §1, §2

[1] = 1 mM mevalonate in medium with simvastatin, 20 hours before PMA

Compound: CCCCCCCCCCCCCC(=O)O[C@@H]1[C@@H](C)[C@@]2(O)[C@@H](C=C(CO)C[C@]3(O)C(=O)C(C)=C[C@@H]23)[C@@H]2C(C)(C)[C@]12OC(C)=O [PMA, phorbol 12-myristate 13-acetate]
- FOS expression after PMA stimulation (FOS): uniformly induced in all five cell lines
- DUSP1 expression after PMA stimulation (DUSP1): repressed in two of the cell lines

Compound: CC(O)(CCO)CC(=O)O (stereo not shown) [mevalonate]
- effect on statin-induced reduction in FOS protein (FOS protein): reversed
- effect on statin-induced reduction in monocyte adhesion (THP1 cells; [1]): specifically reversed
- effect on statin-induced reduction in MCP-1 release (MCP-1; [1]): specifically reversed

Compound: CCC(C)(C)C(=O)O[C@H]1C[C@@H](C)C=C2C=C[C@H](C)[C@H](CC[C@@H]3C[C@@H](O)CC(=O)O3)[C@H]21 [statins, simvastatin]
- reduction in monocyte adhesion to plastic substratum compared to control (THP1 cells; 10 μM simvastatin pretreatment 20 hours, 2 nM PMA, 4 hours after PMA, P=0.004): approximately 70%
- reduction in MCP-1 release into medium compared to control (MCP-1; 10 μM simvastatin pretreatment 20 hours, 2 nM PMA, 24 hours after PMA, P=0.04): approximately 70%
